Converted amounts (≈) assume the structure as drawn. Where two headings read alike, the source gives them in different places.
How the values were obtained:
[1] = tested on: K. pneumoniae ATCC 13883; assay: MIC by microdilution, K. pneumoniae ATCC 13883; assay type: cell-based; settings: Klebsiella pneumoniae, ATCC13883
Protocol: (§1) Compounds were tested against Gram-positive and Gram-negative bacteria, including sensitive or drug resistant strains from American Type Culture Collection (ATCC), as well as resistant clinical isolates from the culture collection of the Laboratory for Control of Hospital Infections (Sechenov University, Moscow, Russia). Collection cultures of Gram-positive bacteria: Staphylococcus aureus ATCC 25923, Staphylococcus aureus ATCC 3798, Staphylococcus aureus ATCC 700,699 and clinical isolates of Gram-positive bacteria: Staphylococcus aureus 5, Staphylococcus aureus 10, Staphylococcus aureus 100 KS, Staphylococcus epidermidis 533, Enterococcus faecium 569 and collection cultures of Gram-negative bacteria: Escherichia coli ATCC 25922, Klebsiella pneumoniae ATCC 13883, Salmonella cholerasuis ATCC 14,028 were used.
(§2) For the cultivation of the strains, various nutrient media were used: Trypticase Soy Agar BBL for Staphylococcus sp., E. coli, K. pneumoniae, S. cholerasuis and Columbia Agar Base BBL for the cultivation of Enterococcus sp. Cultures grown on appropriate nutrient media at 35 °C for 1 day were used to set up experiments. For determination of the antibacterial action Mueller-Hinton (Acumedia, Baltimore, MD, USA) liquid medium was used. The minimum inhibitory concentrations (MIC) were determined by the microdilution method in 96 well sterile plates in a cation-adjusted Müller-Hinton medium in accordance with the requirements of the Institute of Clinical and Laboratory Standards (CLSI/NCCLS). MIC was defined as the minimum drug concentration that completely prevents the growth of the test organism.

[2] = tested on: S. aureus 10; assay: MIC by microdilution, S. aureus 10; assay type: cell-based; settings: Staphylococcus aureus
Protocol: as §1, §2

[3] = tested on: S. epidermidis 533; assay: MIC by microdilution, S. epidermidis 533; assay type: cell-based; settings: Staphylococcus epidermidis
Protocol: as §1, §2

[4] = tested on: E. faecium 569; assay: MIC by microdilution, E. faecium 569; assay type: cell-based, Enterococcus faecium; settings: Enterococcus faecium
Protocol: as §1, §2

[5] = tested on: S. cholerasuis ATCC 14028; assay: MIC by microdilution, S. cholerasuis ATCC 14028; assay type: cell-based; settings: Salmonella, ATCC14028
Protocol: as §1, §2

[6] = tested on: S. aureus 100 KC; assay: MIC by microdilution, S. aureus 100 KC; assay type: cell-based; settings: Staphylococcus aureus
Protocol: as §1, §2

[7] = tested on: S. aureus ATCC 25923; assay: MIC by microdilution, S. aureus ATCC 25923; assay type: cell-based; settings: Staphylococcus aureus, ATCC25923
Protocol: as §1, §2

[8] = tested on: S. aureus 5; assay: MIC by microdilution, S. aureus 5; assay type: cell-based; settings: Staphylococcus aureus
Protocol: as §1, §2

[9] = tested on: S. aureus ATCC 3798; assay: MIC by microdilution, S. aureus ATCC 3798; assay type: cell-based; settings: Staphylococcus aureus, ATCC3798
Protocol: as §1, §2

[10] = tested on: S. aureus ATCC 700699; assay: MIC by microdilution, S. aureus ATCC 700699; assay type: cell-based, Staphylococcus aureus; settings: Staphylococcus aureus, ATCC700699
Protocol: as §1, §2

[11] = tested on: P. aeruginosa ATCC 27853; assay: MIC by microdilution, P. aeruginosa ATCC 27853; assay type: cell-based; settings: Pseudomonas aeruginosa, ATCC27853
Protocol: as §2

[12] = tested on: E. coli ATCC 25922; assay: MIC by microdilution, E. coli ATCC 25922; assay type: cell-based, Escherichia coli; settings: Escherichia coli, ATCC25922
Protocol: as §1, §2

[13] = substances with a known LogPow used for HPLC calibration; cited from earlier work

With `CCN(CC)c1ccc(C(=C2C=CC(=[N+](CC)CC)C=C2)c2ccccc2)cc1` [BG, brilliant green, reference compound] the MIC [1] was 8 µg/mL, the MIC [2]; 10 was 0.13 µg/mL and the MIC [3]; 533 was 0.06 µg/mL. For the same compound, the MIC [4]; 569 was 0.25 µg/mL, the MIC [5] was 16 µg/mL and the MIC ([6]; MRSA) was 0.06 µg/mL. It also gave an MIC [7] of 0.06 µg/mL, an MIC ([8]; MRSA) of 0.06 µg/mL and an MIC [9] of 0.06 µg/mL. For the same compound, the MIC [10] was 1 µg/mL, the MIC [11] was > 64 µg/mL and the MIC [12] was 4 µg/mL.

In the case of `C[C@H]1COc2c(N3CCN(C)CC3)c(F)cc3c(=O)c(C(=O)O)cn1c23` [Lf, levofloxacin, reference compound], the MIC ([1]; K. pneumoniae ATCC 13883, read-out: MIC) is reported as 0.25 µg/mL (≈ 0.692 µM), the MIC ([2]; clinical isolate S. aureus 10, sensitive to all antibiotics, read-out: MIC) is reported as 0.13 µg/mL (≈ 0.36 µM) and the MIC ([3]; S. epidermidis 533, resistant to gentamicin, read-out: MIC) is reported as 0.5 µg/mL (≈ 1.38 µM). It also gave an MIC ([4]; E. faecium 569, resistant to cefuroxime, clindamycin, gentamycin, vancomycin, doxycycline, read-out: MIC) of 1 µg/mL (≈ 2.77 µM), an MIC ([5]; S. cholerasuis ATCC 14028, read-out: MIC) of 0.13 µg/mL (≈ 0.36 µM) and an MIC ([6]; S. aureus 100 KC, methicillin resistant (MRSA) clinical isolate, read-out: MIC) of 32 µg/mL (≈ 88.6 µM). For the same compound, the MIC ([7]; S. aureus ATCC 25923, sensitive to all antibiotics, read-out: MIC) was 0.25 µg/mL (≈ 0.692 µM), the MIC ([8]; S. aureus 5, methicillin resistant (MRSA) clinical isolate, read-out: MIC) was 0.25 µg/mL (≈ 0.692 µM) and the MIC ([9]; S. aureus ATCC 3798, multiresistant incl. ciprofloxacin, levofloxacin, read-out: MIC) was 32 µg/mL (≈ 88.6 µM). It also gave an MIC ([10]; S. aureus ATCC 700699, resistant to levofloxacin, read-out: MIC) of 16 µg/mL (≈ 44.3 µM), an MIC ([11]; P. aeruginosa ATCC 27853, read-out: MIC) of 1 µg/mL (≈ 2.77 µM) and an MIC ([12]; E. coli ATCC 25922, read-out: MIC) of 0.06 µg/mL (≈ 0.166 µM).

For `Nc1ccccc1` [aniline], the “LogPow of calibration substances” value [13] is listed as 0.9.

In the case of `c1ccc(Nc2ccccc2)cc1` [diphenylamine], the “LogPow of calibration substances” value [13] is listed as 3.4.

For `Nc1ccc(Cl)cc1` [p-chloroaniline], the “LogPow of calibration substances” value [13] is listed as 1.8.

For `c1ccc(N(c2ccccc2)c2ccccc2)cc1` [triphenylamine], the “LogPow of calibration substances” value [13] is listed as 5.7.
